Measurements: PubChem BioAssay (NCI)
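Briefly, cells in 96-well plates were exposed to five compound concentrations for 48 h, and endpoints were estimated by linear interpolation. TGI: total growth inhibition.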

Columns and labels:
Test in all cases: NCI anticancer screen, dose series, 48 h
BT-549 breast = tested on: BT-549 breast
DU-145 prostate = tested on: DU-145 prostate
EKVX NSCLC = tested on: EKVX NSCLC
HOP-62 NSCLC = tested on: HOP-62 NSCLC
IGROV1 ovarian = tested on: IGROV1 ovarian
K-562 leukemia = tested on: K-562 leukemia
MCF7 breast = tested on: MCF7 breast
MDA-MB-435 = tested on: MDA-MB-435
NCI-H226 lung = tested on: NCI-H226 lung
NCI-H23 lung = tested on: NCI-H23 lung
NCI-H460 lung = tested on: NCI-H460 lung
NCI/ADR-RES ovarian = tested on: NCI/ADR-RES ovarian
SF-295 CNS = tested on: SF-295 CNS
SK-MEL-2 melanoma = tested on: SK-MEL-2 melanoma
SK-MEL-28 melanoma = tested on: SK-MEL-28 melanoma
SK-MEL-5 melanoma = tested on: SK-MEL-5 melanoma
SK-OV-3 ovarian = tested on: SK-OV-3 ovarian
UACC-257 melanoma = tested on: UACC-257 melanoma
MALME-3M melanoma = tested on: MALME-3M melanoma

Row | Compound | TGI (BT-549 breast) | TGI (DU-145 prostate) | TGI (EKVX NSCLC) | TGI (HOP-62 NSCLC) | TGI (IGROV1 ovarian) | TGI (K-562 leukemia) | TGI (MCF7 breast) | TGI (MDA-MB-435) | TGI (NCI-H226 lung) | TGI (NCI-H23 lung) | TGI (NCI-H460 lung) | TGI (NCI/ADR-RES ovarian) | TGI (SF-295 CNS) | TGI (SK-MEL-2 melanoma) | TGI (SK-MEL-28 melanoma) | TGI (SK-MEL-5 melanoma) | TGI (SK-OV-3 ovarian) | TGI (UACC-257 melanoma) | TGI (MALME-3M melanoma)
1 | Cc1ccc(-c2cc(=O)c(=O)[nH][nH]2)cc1 | > 100 µM | > 100 µM | > 100 µM | > 100 µM | > 100 µM | > 100 µM | > 100 µM | > 100 µM | > 100 µM | > 100 µM | > 100 µM | > 100 µM | > 100 µM | > 100 µM | > 100 µM | > 100 µM | > 100 µM | > 100 µM | –
2 | CCOC(=O)c1cc([N+](=O)[O-])c(Sc2ncnc3nc[nH]c23)c([N+](=O)[O-])c1 | 20.1 µM | 29.2 µM | 15.4 µM | 24.8 µM | 13.7 µM | – | 3.41 µM | 14.7 µM | 17.3 µM | 28.7 µM | 25.6 µM | 14.3 µM | > 35.6 µM | 24.6 µM | 29.2 µM | 23 µM | 5.04 µM | 20.6 µM | 18.1 µM
3 | C=C(C)CCC(O)[C@](C)(O)[C@H]1[C@H](O)C[C@@]2(C)[C@@H]3CCc4c(cc(OC5OC(CO)C(O)C(O)C5O)c(O)c4C)C3(C)C(=O)C[C@]12C (some centres not stated) | > 100 µM | > 100 µM | > 100 µM | > 100 µM | > 100 µM | > 100 µM | > 100 µM | > 100 µM | > 100 µM | > 100 µM | > 100 µM | > 100 µM | > 100 µM | > 100 µM | > 100 µM | – | > 100 µM | > 100 µM | > 100 µM
4 | O=C1N[C@H](C(=O)O)[C@@H](c2ccc(OCc3ccccc3)cc2)O1 | > 100 µM | > 100 µM | 89.1 µM | 33.2 µM | 78.6 µM | > 100 µM | > 100 µM | > 100 µM | 55.7 µM | > 100 µM | – | 65.3 µM | 79.6 µM | > 100 µM | > 100 µM | > 100 µM | > 100 µM | > 100 µM | > 100 µM
5 | Cc1cccc(-c2nc(-c3cnccn3)n(Cc3ccccc3)n2)c1 | > 100 µM | > 100 µM | – | > 100 µM | > 100 µM | > 100 µM | > 100 µM | > 100 µM | – | > 100 µM | > 100 µM | > 100 µM | > 100 µM | – | > 100 µM | > 100 µM | > 100 µM | > 100 µM | –
6 | COc1ccc(CNc2nc3cc(C(F)(F)F)ccc3nc2C(=O)O)cc1 | 69.6 µM | > 100 µM | 78.6 µM | 55.5 µM | > 100 µM | 61.3 µM | 64.9 µM | 50.6 µM | > 100 µM | 76.3 µM | > 100 µM | 58.1 µM | > 100 µM | 62.2 µM | > 100 µM | 32.1 µM | > 100 µM | > 100 µM | –
7 | O=C(CCCn1ccnc1[N+](=O)[O-])NCCn1cnc([N+](=O)[O-])n1 | > 100 µM | > 100 µM | – | > 100 µM | > 100 µM | > 100 µM | > 100 µM | > 100 µM | > 100 µM | > 100 µM | > 100 µM | > 100 µM | > 100 µM | > 100 µM | > 100 µM | > 100 µM | > 100 µM | > 100 µM | > 100 µM
8 | CC(=O)Oc1cc(-c2oc3cc(OC(C)=O)c(C4OC(CO)C(O)C(O)C4O)c(OC(C)=O)c3c(=O)c2O)c(OC(C)=O)cc1O (configuration not stated) | > 100 µM | > 100 µM | > 100 µM | > 100 µM | > 100 µM | > 100 µM | > 100 µM | > 100 µM | > 100 µM | > 100 µM | > 100 µM | > 100 µM | > 100 µM | > 100 µM | – | > 100 µM | > 100 µM | > 100 µM | > 100 µM
9 | CN(/N=C/C=N/N(C)C1=NCCN1)C1=NCCN1 | > 100 µM | > 100 µM | > 100 µM | > 100 µM | > 100 µM | > 100 µM | > 100 µM | > 100 µM | > 100 µM | > 100 µM | > 100 µM | > 100 µM | > 100 µM | – | > 100 µM | > 100 µM | > 100 µM | > 100 µM | > 100 µM
10 | COc1ccc(Nc2cc(=O)[nH]c(=O)[nH]2)cc1 | > 100 µM | > 100 µM | > 100 µM | > 100 µM | > 100 µM | > 100 µM | > 100 µM | > 100 µM | > 100 µM | > 100 µM | > 100 µM | > 100 µM | > 100 µM | – | > 100 µM | > 100 µM | – | > 100 µM | > 100 µM
11 | O=C(CC(=O)N1N=C(N(c2ccccc2)c2ccccc2)CC1c1ccccc1)Nc1cccc(Cl)c1 (configuration not stated) | > 100 µM | > 100 µM | > 100 µM | > 100 µM | > 100 µM | > 100 µM | > 100 µM | > 100 µM | > 100 µM | > 100 µM | > 100 µM | > 100 µM | > 100 µM | > 100 µM | > 100 µM | > 100 µM | > 100 µM | > 100 µM | –
12 | CC(C)=CCc1cc(/C=C/C(=O)O)cc(CC=C(C)C)c1O | > 100 µM | > 100 µM | > 100 µM | > 100 µM | > 100 µM | > 100 µM | > 100 µM | > 100 µM | – | > 100 µM | > 100 µM | > 100 µM | > 100 µM | > 100 µM | – | > 100 µM | > 100 µM | > 100 µM | –
13 | CC1(C)N([O-])[N+](=O)C1(C)O (configuration not stated) | > 100 µM | > 100 µM | > 100 µM | – | > 100 µM | > 100 µM | > 100 µM | > 100 µM | > 100 µM | > 100 µM | > 100 µM | > 100 µM | – | > 100 µM | > 100 µM | > 100 µM | > 100 µM | > 100 µM | > 100 µM
